The subject of data set [1] is Spodoptera littoralis larvae. Nature of the data set: Insecticidal leaf dip bioassay screening. The following applies: for Toxicity index %: 72 hours, fenoxycarb's LC50/compound's LC50 * 100; for LC50: Spodoptera littoralis, foliar, 72 h.
Procedure: Five concentrations (200, 100, 50, 25, 12.5 ppm) were designed for this synthetic compound and the reference fenoxycarb's compound as the dynamic ingredients based on ppm via diluting the commercial formulation.
In this experiment, the synthetic compound was tested for its insecticidal bioactivity using the industry-standard leaf dip bioassay techniques. Preparation of the compound stocks to create 1000 ppm, 0.1 g of compounds 2 were dissolved in five mL of Dimethyl formamide & combined with 5 mL of distilled water. Until usage, the stocks were kept in a refrigerator. The target substance test results were noted & the concentrations needed to destroy 50% (LC50) of S. littoralis larvae were calculated. The target compound was employed in five different concentrations, & 0.1% Tween 80 was employed as a surfactant. Castor bean leaf discs (nine centimeters in diameter) were dipped in the concentration under test for ten seconds, then fed to 2th & 4th larvae, which were roughly the same size and housed in glass jars (five pound). Each action carried out 3 times with ten larvae each. The mortality equalized via Abbott's formula. Calculations of mortality setback line were measurably rummage via probity analysis. Harmfulness index was strongminded via sun equations. The mortality results of larval insect were estimated through employing probit analysis through a statistics (LDP-line) equation which estimate the LC50 values with 95% fiducially limits of lower, upper confidence limit and slope.
The test system of another data set is aquatic insects. As to conditions: cited from earlier work.
The mark [2] stands for this setting: read-out: LC50 (mg/L) at 95%, 2nd instar larvae, laboratory strain S. littoralis, after 72 hours of treatment.
Setting [3] is: read-out: LC50 (mg/L) at 95%, 4th instar larvae, laboratory strain S. littoralis, after 72 hours of treatment.

Values after ≈ are worked out from the molar mass of the structure shown. Read-outs that look alike come from different tables or passages of the source.

As to `CCOC(=O)NCCOc1ccc(Oc2ccccc2)cc1` [fenoxycarb, reference compound], the Toxicity index % in data set [1] (2nd instar larvae) and in data set [1] (4th instar larvae) was 100% throughout. For the same molecule, the LC50 in data set [1] (setting [2]) was 5.94 mg/L (≈ 19.7 µM); in data set [1] (setting [3]) it was 59.9 mg/L (≈ 199 µM).

Consider `CCc1ccc(C(=O)NN(C(=O)c2cc(C)cc(C)c2)C(C)(C)C)cc1` [tebufenozide], for which, in the data set with aquatic insects, the LC50 was 100 to 1000 mg/L.

In the case of `O=C(Nc1ccccc1)C1=CN=C(Nc2ccc(Cl)cc2)O/C(=N/c2ccccc2)O1` [Compound 2, (2E)-4-[(4-chlorophenyl)amino]-N-phenyl-2-(phenylimino)-1,3,5-dioxazepine-7-carboxamide], the “activity against Spodoptera littoralis” value in data set [1] (2nd and 4th instar larvae, FIGS. 1A-1B, compared with Fenoxycarb) is “active against Spodoptera littoralis”. Further, the results for the Toxicity index % in data set [1] (2nd instar larvae) and in data set [1] (4th instar larvae) were 10.31% and 23.54%, respectively. The LC50 was 57.6 mg/L (≈ 133 µM) in data set [1] (setting [2]) and around 254 mg/L (≈ 588 µM) in data set [1] (setting [3]).

Values taken from patent US12060336B1, “(2E)-4-[(4-chlorophenyl)amino]-N-phenyl-2-(phenylimino)-1,3,5-dioxazepine-7-carboxamide as an eco-friendly insecticidal agent against Spodoptera littoralis (boisd.)” (King Faisal University, priority 2023, dated 2024).
